Measurements from patent US5071983A, “Therapeutic nucleosides” (priority 1989, dated 1991).
Where “and” joins values, the source holds several entries; their conditions need not be identical. Equal values may be shown once. Read-outs that look alike come from different tables or passages of the source. One block for each molecule: values may come before it.

Assays:
HIV [1] = details: known from EP 0216511; cited from earlier work
[2] = Concomitant plasma and brain levels of DDC and its congeners after oral dosing of rats; format: in vivo, male Sprague Dawley rats; details: rat; for Amounts of analogues still containing the N4-amide in plasma and brain / Plasma and brain levels of DDC relative to DDC dosing: oral dose equivalent to 25 mg DDC, 0.5 and 2 hours; for Levels of DDC in plasma and brain relative to a dose of DDC, 0.5 hour: 0.5 hour post dose; for Plasma and brain concentrations of DDC relative to a dose of DDC, 2 hours: 2 hours post dose
Method: (§1) Using an intragastric needle, sexually mature, male Sprague Dawley rats were given single 25 mg/kg oral doses of DDC or equimolar doses of DDC Congeners.
For concomitant plasma and brain level studies, each compound was administered to two animals. Animals were sacrificed by decapitation, one of each pair at 30 minutes and the other at 2 hours post dose. Blood was collected into heparinized cups and plasma was prepared. Samples of each plasma were ultrafiltered (Amicon Centrifree Micropartition Systems) prior to HPLC analysis. Brains were removed, weighed, homogenized in 2 volumes (2 ml/g) deionized water and centrifuged (12,000×g 4° C., 30 min). The resulting supernatants were filtered (0.22 μm filters) prior to HPLC analysis.
(§2) A dual-pump HPLC system was used to analyse samples of urine, feces, plasma and brain for DDC and its congeners and their metabolites. The solvent for pump A was 25 mM phosphoric acid, buffered to pH 7.2 with ammonium hydroxide. The solvent for pump B was 60% acetonitrile in solvent A. Samples were injected onto an Adsorbospher phenyl column (4.6×250 mm, 5 micron spherical packing) and eluted at a flow rate of 1 ml/minute using linear increases in solvent B from 0 to 15% over 15 minutes and from 15 to 100% over 21 minutes, with 5 minute purge (100% B) and 15 minute restore (0% B) period between injections. The absorbance of the column effluent was monitored at 273 and 254 nm. Concentrations of compounds were determined by comparing appropriate peak areas to standard curves obtained from analysis of aqueous solutions of authentic standards. Compounds were identified by comparing retention times and ratios of peak areas at 273 and 254 nm to those of authentic standards.

HIV [3] = test: Antiviral activity against HIV (method of Mitsuya et al.); format: cell-based; details: Human immunodeficiency virus 1; for minimal effective concentration: no % protection printed, read-out: Concentration at which found to have activity against HIV; for IC50: HIV
Method: The compounds of Examples 1-6 were tested for activity against HIV generally in accordance with the method described by Mitsuya et al, Proc. Nat. Acad. Sci, USA Vol 82, pp 7096-7100, October 1985 and found to have activity against HIV at the following concentrations: […]

[4] = Urinary and fecal excretion after oral dosing of rats; format: in vivo, male Sprague Dawley rats; details: rat
Method: as §1
For urinary and fecal excretion studies, each compound was administered to two animals, which were housed separately in metabolic cages and urine and feces were separated and collected during the 0-24, 24-48 and 48-72 hour intervals post dose. To prevent bacterial growth, sodium azide was placed in the urine collection vessel so that the final concentration, after 24 hours of urine collection, would be about 0.02%. Feces were weighed, homogenized in 9 volumes (9 ml/g) deionized water and centrifuged (12,000×g, 4° C., 30 min). Prior to high-performance liquid chromatographic (HPLC) analysis for drug and metabolite content, samples of the fecal homogenate supernatants and urines were filtered (0.22 μm filters).
as §2

[5] = in vivo, po, 25 mg/kg, 1440 min

Structure (SMILES): Nc1ccn([C@H]2CC[C@@H](CO)O2)c(=O)n1 [DDC, 2',3'-Dideoxycytidine, reference compound]
Anti-HIV activity (HIV [1]): potent anti-HIV activity
Absorption and hydrolysis (plasma level data) ([2]; oral): absorption of DDC although incomplete, may be more prolonged
inhibition at 16 µM (HIV [3]; 16 μM, read-out: % Protection): 99%
dose excreted at 24 h ([4]; feces, po, 25 mg/kg, rat 1, oral 25 mg/kg, compound detected: DDC, read-out: Percent Dose Excreted as DDC, 0-24 hr Feces): 12%
dose excreted ([4]; feces, po, 25 mg/kg, two rats, oral 25 mg/kg, feces, DDC, read-out: Average fecal excretion of parent compound): 28.1%
Average fecal excretion of 2',3'-dideoxyuridine ([4]; in vivo, po, 25 mg/kg): 1.9 % of the dose
Compound Detected, 24-72 hr Feces ([4]; in vivo, po, 25 mg/kg): none
Gastrointestinal absorption ([4]; in vivo, po, 25 mg/kg): limited gastrointestinal absorption
Percent Dose Excreted as ddU, 0-24 hr Feces [4, 5]: 1.1 Percent Dose
Percent Dose Excreted as ddU, 0-24 hr Urine (second entry so headed) [4, 5]: 2.6 Percent Dose
Percent Dose Excreted as DDC, 0-24 hr Urine ([4]; single oral dose 25 mg/kg DDC or equimolar, individual rats, compound detected: DDC, 25 mg/kg, 1440 min): 31.6 Percent Dose
Percent Dose Excreted as DDC, 24-72 hr Urine ([4]; single oral dose 25 mg/kg DDC or equimolar, individual rats, compound detected: DDC, 25 mg/kg, 4320 min): 6.23 Percent Dose and 1.5 Percent Dose
dose excreted at 24 h ([4]; urine, po, 25 mg/kg, rat 2, oral 25 mg/kg DDC, compound detected: DDC, read-out: Percent Dose Excreted as DDC, 0-24 hr Urine (second entry so headed)): 32.2%
dose excreted at 24 h ([4]; urine, po, 25 mg/kg, single oral dose 25 mg/kg DDC or equimolar, individual rats, compound detected: DDC, read-out: Percent Dose Excreted as DDC, 0-24 hr Urine): 46.6%
dose excreted at 72 h ([4]; urine, po, 25 mg/kg, two rats, oral 25 mg/kg DDC or equimolar, urine 72 hours, read-out: Average urinary excretion as DDC): 43%

Structure (SMILES): CCC(=O)Nc1ccn([C@H]2CC[C@@H](COC(=O)CC)O2)c(=O)n1 [Example 1, 2',3'-Dideoxy-N^4, 5'-O-dipropionylcytidine]
Amounts of analogues still containing the N4-amide in plasma and brain [2]: Much higher amounts
Plasma and brain levels of DDC relative to DDC dosing [2]: lower than what was observed after dosing with DDC
minimal effective concentration (HIV [3]): 25 µM

Structure (SMILES): CCC(=O)Nc1ccn([C@H]2CC[C@@H](CO)O2)c(=O)n1 [Example 2, 2',3'-Dideoxy-N^4-propionylcytidine]
IC50 (HIV [3]): 36 µM

Structure (SMILES): CCC(=O)OC[C@@H]1CC[C@H](n2ccc(N)nc2=O)O1 [Example 3, 2',3'-Dideoxy-5'-O-propionylcytidine]
Levels of DDC in plasma and brain relative to a dose of DDC, 0.5 hour ([2]; oral): higher levels of DDC in the plasma and brain
Plasma and brain concentrations of DDC relative to a dose of DDC, 2 hours ([2]; oral): lower than those observed after a dose of DDC
IC50 (HIV [3]): 1.6 µM

Structure (SMILES): CC(C)(C)C(=O)Nc1ccn([C@H]2CC[C@@H](COC(=O)C(C)(C)C)O2)c(=O)n1 [Example 4, 2',3'-dideoxy-N^4,5'-O-dipivaloylcytidine]
Amounts of analogues still containing the N4-amide in plasma and brain [2]: Much higher amounts
Plasma and brain levels of DDC relative to DDC dosing [2]: lower than what was observed after dosing with DDC
minimal effective concentration (HIV [3]): 25 µM

More lines, main results first:

Amounts of analogues still containing the N4-amide in plasma and brain [2]: Much higher amounts
Structure (SMILES): CC(C)(C)C(=O)Nc1ccn([C@H]2CC[C@@H](CO)O2)c(=O)n1 [Example 5, 2',3'-dideoxy-N^4-pivaloylcytidine]
Plasma and brain levels of DDC relative to DDC dosing [2]: lower than what was observed after dosing with DDC
inhibition at 100 µM (HIV [3]; 100 μM, read-out: % Protection): 42%

Increase of oral bioavailability of DDC ([4]; in vivo, po): 2.5 fold
Structure (SMILES): CC(C)(C)C(=O)OC[C@@H]1CC[C@H](n2ccc(N)nc2=O)O1 [Example 6, 2',3'-Dideoxy-5'-O-pivaloylcytidine]
Levels of DDC in plasma and brain relative to a dose of DDC, 0.5 hour ([2]; oral): higher levels of DDC in the plasma and brain
Plasma and brain concentrations of DDC relative to a dose of DDC, 2 hours ([2]; oral): lower than those observed after a dose of DDC
inhibition at 6.4 µM (HIV [3]; 6.4 μM, read-out: % Protection): 88%
